Assays:
MV4-11 [1] = assay: Induction of apoptosis in human MV4-11 cells assessed as viable cells at 10 nM after 48 hrs by annexin V/propidium iodide staining based FACS analysis (reference value: 90.60%); assay type: functional; conditions: MV4-11, 48 h, read-out: Activity
K562 = assay: cells; conditions: Homo sapiens, K562, 72 h
Description: Antiproliferative activity against FLT3-deficient human K562 cells after 72 hrs by MTT assay

MV4-11 [2] = assay: Cell cycle arrest in human MV4-11 cells assessed as accumulation at S phase at 10 nM after 48 hrs by PI/RNase staining based FACS analysis (reference value: 16.50%); assay type: functional
MV4-11 [3] = assay: Antitumor activity against human MV4-11 cells xenografted in nude BALB/c mouse assessed as tumor growth inhibition at 25 mg/kg, ip qd for 14 days measured every 2 days; assay type: functional; conditions: MV4-11, ip, read-out: TGI
NCI-H146 = assay: Antiproliferative activity against human NCI-H146 cells after 72 hrs by MTT assay; assay type: functional, cell-based; conditions: NCI-H146, 72 h
MCF7 = assay: Antiproliferative activity against human MCF7 cells after 72 hrs by SRB assay; assay type: functional, cell-based; conditions: MCF7, 72 h
HL-60 = assay: Antiproliferative activity against human HL60 cells after 72 hrs by MTT assay; assay type: functional, cell-based; conditions: HL-60, 72 h
MV4-11 [4] = assay: Induction of apoptosis in human MV4-11 cells assessed as necrotic cells at 10000 nM after 48 hrs by annexin V/propidium iodide staining based FACS analysis (reference value: 0.05%); assay type: functional
MOLM-13 = assay: Antiproliferative activity against human MOLM13 cells harboring FLT3-ITD mutant after 72 hrs by MTT assay; assay type: functional, cell-based; conditions: MOLM-13, 72 h
SW-620 = assay: Antiproliferative activity against human SW620 cells after 72 hrs by SRB assay; assay type: functional, cell-based; conditions: SW-620, 72 h
MV4-11 [5] = assay: Induction of apoptosis in human MV4-11 cells assessed as early apoptotic cells at 1000 nM after 48 hrs by annexin V/propidium iodide staining based FACS analysis (reference value: 6.31%); assay type: functional
MV4-11 [6] = assay: Induction of apoptosis in human MV4-11 cells assessed as viable cells at 100 nM after 48 hrs by annexin V/propidium iodide staining based FACS analysis (reference value: 90.60%); assay type: functional; conditions: MV4-11, 48 h, read-out: Activity
A549 = assay: Antiproliferative activity against human A549 cells after 72 hrs by SRB assay; assay type: functional, cell-based; conditions: A549, 72 h

Question: Which results are given for Cc1cc(Nc2ncc3ncc(=O)n(-c4ccc(N)cc4)c3n2)ccc1N1CCN(C)CC1?
Answer: viability at 0.01 µM (MV4-11 [1]): 86.9%; IC50 (K562): > 10000 nM; Activity (MV4-11 [2]): 18.4%; inhibition in vivo at 25 mg/kg (MV4-11 [3]): 129%; IC50 (NCI-H146): > 10000 nM; IC50 (MCF7): > 10000 nM; IC50 (HL-60): 1380 nM; Activity (MV4-11 [4]): 0.02%; IC50 (MOLM-13): 32.9 nM; IC50 (SW-620): 2530 nM; Activity (MV4-11 [5]): 38.4%; viability at 0.1 µM (MV4-11 [6]): 60.3%; IC50 (A549): > 10000 nM

Reference: ChEMBL document CHEMBL4477208, “Discovery and Rational Design of Pteridin-7(8H)-one-Based Inhibitors Targeting FMS-like Tyrosine Kinase 3 (FLT3) and Its Mutants” (J Med Chem, 2016)
